Paper PMC10620931, “Assay Development for Metal-Dependent Enzymes—Influence of Reaction Buffers on Activities and Kinetic Characteristics” (ACS Omega, 2023)

Test system: T1, BLC23O
T1 construct: 6xHis-tag, expressed in E. coli BL21 (DE3); Ni-NTA and size exclusion; Mn2+-dependent
Assay: absorbance of ring-cleavage product at […] nm, Michaelis-Menten fit
Type: biochemical, Halalkalibacterium ligniniphilum
Conditions: 50 mM HEPES pH 7.6, 10 μM Mn2+, 32.5 °C (optimal conditions)

Km: 540 ± 20 µM
SMILES: Cc1cccc(O)c1O [3-methylcatechol]
